Laboratory results reported in paper PMC12817916, “A small-molecule HSP90 inhibitor, NVP-HSP990, alleviates rotavirus infection” (Journal of Virology, 2025).
Like-named read-outs stand apart in the source and are kept apart here.

Columns and labels:
HSP90β = conditions: targets the N-terminal of HSP90β; cited from earlier work
HSP90α = conditions: targets the N-terminal of HSP90α; cited from earlier work
RV Wa (G1P[8]) strain = assay: In vitro assay of RV replication inhibition (PFA); format: cell-based, Rotavirus; conditions: MOI = 1, 24 h p.i., PFA, read-out: IC50
Description: For analysis of effects of different […] on RV replication in vitro, 10,000 MA104 cells, 30,000 Caco-2 cells, and 80,000 HT-29 cells in 100 µL complete DMEM medium were seeded in 96-well plates and cultured at 37°C and 5% CO2 for 24 h. Then the cells were infected with RV Wa or SA11 strains (MOI = 1 (PFU/cell)) for 1 h. After removing the viruses and washing cells two times with DMEM, 100 µL DMEM containing the indicated concentrations of drugs was added to each well, and the plates were incubated at 37°C and 5% CO2. At 24 h p.i., the infected cells and culture medium were collected, frozen/thawed twice, and subjected to centrifugation at 1,000 × g for 3 min at room temperature. Then, the supernatant was subjected to analysis of viral load by PFA. […] Dose-response data (drug concentrations as x-axis and normalized inhibition percentages as y-axis) were fitted to a dose-response inhibition model ([Inhibitor] vs normalized response – Variable slope). […] Model adequacy was validated using goodness-of-fit metrics (R^2 ≥ 0.95), 95% confidence intervals, and residual distribution analysis.
Wa/SA11 strains were titrated by PFA, which was carried out as described (3) with some modification. Briefly, confluent monolayers of MA104 cells in 24-well tissue culture plates were infected with 100 µL supernatants containing infectious RV particles which were serially diluted (10^1, 10^2, 10^3, and 10^4) with DMEM containing 1 µg/mL trypsin and penicillin (10,000 U/mL)-streptomycin (5 µg/mL) (DMEM-T) for 1 h at 37°C. Then 400 µL agarose overlay (0.8% agarose in 1×DMEM-T) was added and the plates were incubated at 37℃ and 5% CO2 for 5 days. The cells in each well were fixed by 1 mL 4% paraformaldehyde (Sangon Biotech, China) overnight (> 12 h) at room temperature. Then, the paraformaldehyde and agarose were removed and the monolayers were stained with 0.5 ml of a 1% (v/v) crystal violet (Sangon Biotech, China) diluted in distilled water for 10 min at room temperature. Then, the plates were drained and dried, and the plaques were enumerated. As the EDIM strain is not able to grow in cell culture, it was titrated by qPCR analysis as described (4) with EDIM VP6 gene as the target.

[1] = system: MAPK signaling pathway (ERK1/2, p38 MAPK, SAPK/JNK); assay: Western blot of MAPK components; format: cell-based; conditions: WB; for MAPK activation (especially ERK1/2 and p38 MAPK): 100 nM, 20 h
Description: MA104, Caco-2, and HT-29 cells were mock-infected with PBS, infected with RV Wa or SA11 strains (MOI = 3), or treated with 1 µM C16-PAF (C16) for 1 h. After removing the viruses or C16-PAF and washing cells two times with DMEM, the cells were cultivated with 2 mL DMEM containing 100 nM NVP-HSP990 (+), an equal volume of DMSO (−), or 1 µM C16-PAF at 37°C and 5% CO2 for 20 h. Then, the cells in each well (~5 × 10^5 cells) were lysed with 100 µL RIPA lysis buffer (Beyotime, China) plus protease inhibitor cocktail (Thermo Fisher Scientific, USA). The cell lysates were collected in 1.5 mL EP tubes, sonicated five times for 15 s at 80 watts on ice, and clarified by centrifugation at 12,000 × g for 10 min at 4°C. After protein quantification with a BCA kit (Beyotime, China), the protein samples were mixed with 25 µL 5× SDS loading buffer (Beyotime, China), boiled at 100°C for 5 min, chilled on ice, vortexed for seconds, and centrifuged at 12,000 × g for 3 min at room temperature. Twenty micrograms of protein was subjected to protein electrophoresis in precast 4–20% SDS-PAGE gels (Beyotime, China), and then transferred to 0.22 µm PVDF membranes (Millipore, USA). After blocking with 5% BSA, the membranes were incubated with rabbit antibodies to MAPK components (SAPK/JNK, phospho-SAPK/JNK, p38 MAPK, phospho-p38 MAPK, ERK1/2, phospho-ERK1/2) (CST, USA), rabbit anti-RV VP6/VP7 polyclonal antibodies (CUSABIO, China), or mouse mAb to β-actin (Servicebio, China) as an internal reference. Afterward, the membranes were incubated with horseradish peroxidase-conjugated rat anti-rabbit IgG (CST, USA) or rat anti-mouse IgG (CST, USA). Immunoreactive bands were visualized using enhanced chemiluminescence substrate BeyoECL Plus (Beyotime, China).
Fig 4 NVP-HSP990 inhibited MAPK activation and facilitated expression of tight junction-associated proteins in intestinal cells. […]
Supplementary Fig. 7. […] The grayscale values of WB bands were quantified, and the relative protein levels of MAPK components were normalized to β-actin. […]

## COc1cccc(-c2cc(F)ccc2[C@H]2Cc3nc(N)nc(C)c3C(=O)N2)n1 [NVP-HSP990]
HSP90β
  IC50: 0.8 nM
HSP90α
  IC50: 0.6 nM
RV Wa (G1P[8]) strain; Wa strain in Caco-2 cells
  IC50: 4 ± 1.28 nM
RV Wa (G1P[8]) strain; Wa strain in HT-29 cells
  IC50: 4.69 ± 0.9 nM
RV Wa (G1P[8]) strain; Wa strain in MA104 cells
  IC50: 0.96 ± 0.13 nM
[1]; Caco-2 cells, 1 µM C16-PAF, 100 nM NVP-HSP990, 20 h
  MAPK activation caused by non-infectious factors (drug stimulation): potently inhibited
[1]; RV-infected Caco-2 and HT-29 cells
  MAPK activation (especially ERK1/2 and p38 MAPK): significantly inhibited
[1]; RV-infected MA104 cells
  MAPK activation (especially ERK1/2 and p38 MAPK): not
